US8211874B2, “Inhibition of thrombin generation” (Galderma Laboratories Inc., priority 2005, dated 2012)

Tests used:
plasma aPTT = assay: Activated partial thromboplastin time (aPTT) in plasma; type: biochemical, human; conditions: COL-3 10.72, 21.44 and 536 μM, FIG. 2
Procedure: (§1) COL-3 was dissolved in DMSO (dimethyl sulfoxide, Sigma, St. Louis, Mo.). Blood was drawn from 5 consented healthy volunteers into 3.2% citrate tubes.
(§2) Maximum amplitude (MA), angle, and R-value were recorded. For prothrombin time (PT) and activated partial thromboplastin time (aPTT) blood samples were centrifuged for 15 min at 3000× g to obtain plasma and COL-3 was added to a final concentration of 10.72, 21.44 and 536 μM. Testing was done using Start 4instrument (Diagnostic Stago, Parsippainy, N.J.) along with appropriate standards and controls.

thrombin generation = assay: Thrombin generation in platelet poor plasma (Thrombinoscope, Innovin or Actin trigger); type: biochemical, human; conditions: COL-3 final concentration 10.72, 21.44 and 536 μl, Innovin 5 pM or Actin 1:20 trigger, FIGS. 1A and 1B
Procedure: as §1
For thrombin generation experiments 80 μl of platelet poor plasma containing either saline, DMSO or COL-3 at final concentration of […] and thrombin generation trigger (Innovin 5 pM, or Actin 1:20 dilution, Dade Behring, Marburg, Germany) were added to 96 well microtiter plate (Microfluor-2, Thermolabsystems, Franklin Mass.) followed by 20 μl of calcium-substrate (Z-GGR-AMC, Bachem, Switzerland) buffer. The reaction was monitored by measuring increase in fluorescence at 390 nm excitation and 460 nm emission wavelengths and the acquired data was processed for lag time and peak thrombin generation parameters using Thrombinoscope software (Thrombinoscope BV, Maastricht, the Netherlands). The data were imported into excel file and the % decrease in thrombin generation due to COL-3 was calculated. Data were analyzed using repeated ANOVA p<0.05 was considered significant.

whole blood = assay: TEG (Thromboelastograph) of whole blood activated with tissue factor; type: cell-based, human; conditions: COL-3 10.72 or 21.44 μM, TF 4 pM
Procedure: as §1
For TEG (Thromboelastograph, Haemoscope Corp, Skokie Ill.) whole blood samples (0.34 ml) were added to cups along with 10 μl of saline (control), DMSO, or COL-3 (final concentration of 10.72 or 21.44 μM). After addition of calcium chloride (20 μl of 0.2 M), samples were activated with TF (tissue factor) (4 pM) and TEGs (thrombelastogram) were run according to manufacturers directions.
as §2

[1] = Plasma concentration in humans after daily dose; type: in vivo; conditions: dose of about 10 to about 20 mg/day
plasma PT = assay: Prothrombin time (PT) in plasma; type: biochemical, human; conditions: COL-3 10.72, 21.44 and 536 μM, FIG. 2
Procedure: as §1, §2

platelets = assay: Platelet aggregation (light transmittance aggregometer, ADP and collagen activators); type: cell-based, human; conditions: 200,000 platelets/μl; ADP and collagen (20 μM) as activators
Procedure: as §1
For platelet aggregation studies platelet rich and platelet poor plasma was separated by centrifugation. All platelet studies were performed in a total volume of 500 μl with 200,000 platelets/μl. Platelet aggregation was quantitated by measuring changes in light transmittance in dual channel aggregometer (Chronolog Corp. Havertown, Pa.) using ADP (adenosine di-phosphate) and collagen (final concentration 20 μM) as activators.

Question: For `NC(=O)C1=C(O)C[C@@H]2C[C@@H]3Cc4cccc(O)c4C(=O)C3=C(O)[C@]2(O)C1=O` [COL-3, 6-demethyl-6-deoxy-4-de(dimethylamino)tetracycline], which aPTT values (plasma aPTT) is on record?
Answer: increased only at the highest concentration

Question: And the thrombin generation (thrombin generation)?
Answer: dose dependent reduction

Question: What about the “TEG parameters (maximum amplitude (MA), angle, R-value)” value (whole blood) of the same compound?
Answer: no effect

Question: What about the “plasma concentrations in humans” value [1] of the same compound?
Answer: about 1.0 μg/ml

Question: What about the PT values (plasma PT) of the same compound?
Answer: increased only at the highest concentration

Question: What about the platelet aggregation (platelets) of the same compound?
Answer: no effect
